One may read the pEC50 as the EC50 on a negative log10 scale, so that one unit is a factor of ten. The low end stands for a large EC50, the high end for a small EC50.

Among the data in BindingDB's records for doi:10.7270/Q2XS5SSN (Nmmlsc, 2010) are EC50 values, retold here.

pEC50: −log10 of the molar value.

In this assay the target is T1, GTPase KRas [1-37] (Homo sapiens, UniProt G3V5T7).
T1 construct: 1-37
The assay can be described thus: Ras wt fluorescent GTP loading blockade – biochemical, wildtype, multiplex bead flow cytometry, dose response (AID 1335). (In flow cytometry, cells or beads pass a laser one at a time.)

T1 sequence (G3V5T7 whole entry): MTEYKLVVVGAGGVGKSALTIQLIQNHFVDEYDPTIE

The compound `Cc1ccc(-n2c(=O)cc(N3CCc4ccccc4C3)[nH]c2=O)cc1` had a pEC50 of 4.36. The compound `Cc1cc(C(=O)Oc2ccccc2C(=O)O)c(C)o1` [2-(2,5-dimethyl-3-furoyl)oxybenzoic acid] had a pEC50 of 5.44. The value for `O=C(O)c1ccccc1OCc1ccccc1Br` [2-(2-bromobenzyl)oxybenzoic acid] was 6.96; that for `CC1(C)Cc2c(sc(NC(=S)NC(=O)c3ccccc3)c2C(=O)O)CO1` [2-(benzoylcarbamothioylamino)-5,5-dimethyl-4,7-dihydrothieno[2,3-c]pyran-3-carboxylic acid] was 7.00; that for `CCn1cc(C=C2C(=O)c3ccccc3C2=O)c2ccccc21` [2-[(1-ethyl-3-indolyl)methylidene]indene-1,3-dione] was 5.10.

In turn, `Cc1cc(NC(=O)CSc2nc(O)c(C#N)c(-c3ccccc3)n2)no1` [2-[(5-cyano-4-oxidanylidene-6-phenyl-1H-pyrimidin-2-yl)sulfanyl]-N-(5-methyl-1,2-oxazol-3-yl)ethanamide] had a pEC50 of 5.05. For the compound `Cc1cc(C(=O)O)sc1CNCc1ccccc1Cl` [5-[[(2-chlorobenzyl)amino]methyl]-4-methyl-2-thenoic acid], the pEC50 was 7.11. The value for `CCN1C(c2ccccc2)=C(c2ccccc2)S/C1=C/C=C1\SC(=S)N(C)C1=O` [(5Z)-5-[(2E)-2-(3-ethyl-4,5-diphenyl-1,3-thiazol-2-ylidene)ethylidene]-3-methyl-2-sulfanylidene-1,3-thiazolidin-4-one] was 4.47; that for `O=C(O)/C=C/c1cn(Cc2ccccc2)nc1-c1cccs1` [(E)-3-(1-benzyl-3-thiophen-2-ylpyrazol-4-yl)prop-2-enoic acid] was 5.39; that for `CCS(=O)(=O)N1N=C(c2cccc(NS(C)(=O)=O)c2)CC1c1ccc(C)cc1` (stereo not given) [MLS000680398] was 5.58.
